Results on one molecule are retold here after paper PMC9853328, “Potent Platinum(IV) Prodrugs That Incorporate a Biotin Moiety to Selectively Target Cancer Cells” (Pharmaceutics, 2022).

Where “and” joins values, the source holds several entries; their conditions need not be identical. Equal values may be shown once.

Holding throughout (assay type): cell-based
For one data set, the system named is U87 glioblastoma cells. The data set is described as follows: MTT in vitro cytotoxicity assay, U87. To be noted: 72 h drug exposure, n = 3, read-out: GI50 ± SEM, U87. As for the experimental part: (§1) The in vitro cytotoxicity assays were undertaken at Calvary Mater Hospital, Waratah, NSW, Australia, following a method previously published in the literature. A stock solution for each compound was prepared in DMSO (30 mM) and stored at −20 °C. The cell lines used in the study include HT29 colon, U87 glioblastoma, MCF-7 breast, A2780 ovarian, H460 lung, A431 skin, Du145 prostate, BE2-C neuroblastoma, SJ-G2 glioblastoma, MIA pancreas, and cisplatin-resistant ADDP ovarian (subclone of A2780) cancer cells, as well as the non-cancerous-derived MCF10A breast cell line. The cancer cell lines were cultured in a humidified atmosphere 5% CO2 at 37 °C and maintained in Dulbecco’s modified Eagle’s medium (Trace Biosciences, Sydney, Australia), supplemented with 10% foetal bovine serum, sodium bicarbonate (10 mM), penicillin (100 IU/mL), streptomycin (100 µg/mL), and glutamine (4 mM). The non-cancerous MCF10A cell line was maintained in DMEM:F12 (1:1) cell culture media, with 5% heat inactivated horse serum, supplemented with penicillin (50 IU/mL), streptomycin (50 µg/mL), glutamine (2 mM), HEPES (20 mM), epidermal growth factor (20 ng/mL), hydrocortisone (500 ng/mL), cholera toxin (100 ng/mL), and insulin (10 µg/mL). Cells were plated in duplicate in medium (100 µL) at a density of 2500–4000 cells per well in 96-well plates. On day 0, (24 h after plating) when the cells were in logarithmic growth, medium (100 μL) with or without the test agent was added to each well. The growth inhibitory effects were evaluated after 72 h drug exposure, using the MTT (3-(4,5-dimethylthiazol-2-yl)-2,5-diphenyltetrazolium bromide) assay, with the absorbance read at 540 nm. An eight-point dose–response curve was produced, which was used to determine the concentration at which growth was inhibited by 50% (GI50). This calculation was based on the difference between the optical density values on day 0 and those at the end of drug exposure. […] Experiments were conducted on three separate occasions and GI50 values were reported as the mean and standard error of the mean.

The test system of data set [1] is ADDP (subclone of A2780) versus A2780 ovarian cancer cell lines. The data set is described as follows: Resistance factor, GI50 in ADDP/GI50 in A2780.
The test system of data set [2] is Du145 prostate cancer cells. In words: MTT in vitro cytotoxicity assay, Du145. As for the experimental part:
as §1

The test system of data set [3] is A2780 ovarian cancer cells. The data set is described as follows: MTT in vitro cytotoxicity assay, A2780. To be noted: 72 h drug exposure, n = 3, read-out: GI50 ± SEM, A2780. As for the experimental part: as §1
A further data set has as its system HT29 colon cancer cells. In words: MTT in vitro cytotoxicity assay, HT29. As for the experimental part: as §1
The next data set has as its system A431 skin cancer cells. The data set is described as follows: MTT in vitro cytotoxicity assay, A431. To be noted: 72 h drug exposure, n = 3, read-out: GI50 ± SEM, A431. How it is done:
as §1

The subject of data set [4] is MCF-7 breast cancer cells. The data set is described as follows: MTT in vitro cytotoxicity assay, MCF-7. To be noted: MTT, 72 h drug exposure, n = 3; read-out: GI50 ± SEM, MCF-7.
Data set [5] concerns MCF10A (healthy breast) cells. The data set is described as follows: Cellular platinum uptake by ICP-MS, MCF10A. To be noted: 1.0 and 0.1 µM, 4 h, among complexes 1–4. As for the experimental part:
Cellular uptake studies were carried out in MCF-7 (breast cancer) and MCF10A (healthy breast) cell lines. Reported in Table S2 are the numbers of cells per well that were seeded onto 12-well plates for each replicate and cell line. After incubating overnight at 37 °C, the cell culture medium was replaced with fresh media containing the test compounds at concentrations of 1.0 and 0.1 µM. After incubating for 4 h, the medium was removed, the cells were washed with PBS twice, and then incubated with trypsin solution until the cells dissociated from the plate. The harvested cells were then placed into an Eppendorf tube and PBS was added to a volume of 1 mL. Cell numbers were determined using trypan blue staining. Cell pellets were obtained after centrifugation and the cells were dispersed in 50 µL of MilliQ™ water and stored immediately at −20 °C until platinum analysis was conducted. These experiments were repeated in triplicate on three separate occasions.
Sixty-nine percent HNO3 (50 µL) was added to each sample and digested at 80 °C for 1.5 h, before being taken up to 1 mL with H2O. The platinum analysis was conducted using a PerkinElmer (Melbourne, Australia) NexION™ 300X inductively coupled plasma mass spectrometer (ICP-MS). […] The calibration was linear over the working range (R^2 > 0.9999) and the most abundant platinum isotope (m/z = 195) was monitored. […]

The test system of data set [6] is panel of cancer cell lines. The data set is described as follows: MTT cytotoxicity averaged across the panel of cancer cell lines.
Data set [7] concerns MIA pancreas cancer cells. In words: MTT in vitro cytotoxicity assay, MIA. The following applies: 72 h drug exposure, n = 3, read-out: GI50 ± SEM, MIA. How it is done: as §1
In the next data set the test system is SJ-G2 glioblastoma cells. The data set is described as follows: MTT in vitro cytotoxicity assay, SJ-G2. The following applies: 72 h drug exposure, n = 3, read-out: GI50 ± SEM, SJ-G2. As for the experimental part:
as §1

Another data set concerns H460 lung cancer cells. The data set is described as follows: MTT in vitro cytotoxicity assay, H460. The following applies: 72 h drug exposure, n = 3, read-out: GI50 ± SEM, H460. As for the experimental part: as §1

As to `COc1cc[n+]2c3c1ccc1c(OC)cc[n+](c13)[Pt-2]21([OH])([O]C(=O)CCCC[C@@H]2SC[C@@H]3NC(=O)N[C@@H]32)[NH2+][C@H]2CCCC[C@@H]2[NH2+]1.O=[N+]([O-])[O-].O=[N+]([O-])[O-]` [Complex 3, [Pt(4,7-dimethoxy-1,10-phenanthroline)(1S,2S-diaminocyclohexane)(biotin)(hydroxido)](NO3)2], the GI50 in the data set with U87 glioblastoma cells is 320 ± 60 nM; in data set [2] (MTT, 72 h drug exposure, n = 3, read-out: GI50 ± SEM, Du145), 120 ± 40 nM; in data set [3] it was 370 ± 30 nM; with HT29 colon cancer cells (MTT, 72 h drug exposure, n = 3, read-out: GI50 ± SEM, HT29), 130 ± 50 nM; in the data set on A431 skin cancer cells, 820 ± 220 nM; in data set [4], 99 ± 41 nM. Also, the GI50 was 459 nM in [6] (calculated from the panel of cancer cell lines tested (Table S4)), 180 ± 10 nM in data set [7], 570 ± 170 nM in the data set with SJ-G2 glioblastoma cells and 270 ± 30 nM with H460 lung cancer cells. Further, the “Resistance factor (RF)” value in data set [1] was 0.459 and 0.46. Further, the “number-fold potency against cisplatin, Du145 prostate” value in [2] (ratio of GI50 values, 72 h) turned out to be 10 fold. Further, the “number-fold potency against cisplatin, HT29 colon” value in the data set with HT29 colon cancer cells (ratio of GI50 values, 72 h) is recorded as 87 fold. Also, the “cellular platinum uptake in MCF10A (rank)” value in data set [5] was “lowest uptake levels”. Also, the “enhanced activity compared to platinum(II) precursor across the cancer cell lines” value in [6] (across all cancer cell lines) is listed as ~ 1.3 fold. In data set [6] (average over cancer cell lines), the “fold more active than cisplatin, on average, against all cancer cells” value is 8 fold.

In general, GI50 refers to the concentration at which growth is held to half of that of the control.
